This is an account of results in US20140086939A1, “COMPOSITIONS AND METHODS FOR DETECTING AND TREATING CANCER” (priority 2011, published 2014).

Data set [1] deals with Ikkβ^f/f and Ikkβ^Δ dih10 cells. Kind of data set: Subcutaneous tumor growth of implanted dih10 hepatoma cells in C57BL/6 mice. The data set is classed as in vivo, mouse. As for the experimental part:
FIG. 20. IKKβ deletion in initiated cells enhances proliferation and self-renewal of HCC progenitors. (A) DEN-induced HCC (dih) cell strains from Ikkβ^f/f mice were cultured and infected with Adv-GFP or Adv-Cre. Whole cell lysates of infected dih10 cells were immunoblotted for IKKβ (bottom panel). The cells were further cultured without serum on Petri dishes to form hepatospheres (upper panels). Numbers of 1^0 and 2^0 hepatospheres formed per 100 plated cells were determined (n=3; *: p<0.05). Magnification bar=100 μm. (B) Ikkβ^f/f dih10 cells were infected with an empty retrovirus (vector) or a retrovirus expressing IκBα super-repressor (SR). Stably transfected cells were selected and cultured as above and hepatosphere formation was analyzed (n=3; *: p<0.05). (C, D) IKKβ expressing (Ikkβ^f/f) and deficient (Ikkβ^Δ) dih10 cells (2.5×10^6 each) were s.c. injected into 8 weeks old C57BL/6 mice. (C) Allograft volume was measured weekly (n=5; *: p<0.01). Dissected tumors are shown on the right. (D) BrdU incorporation into tumors was determined (n=5; *: p<0.05). (E) Ikkβ^f/f and Ikkβ^Δ dih12 cells were labeled with dsRed and 4×10^5 cells were seeded into MUP-uPA mouse livers. Relative amounts of dsRed DNA in transplanted MUP-uPA livers were determined by real-time PCR 3 weeks post-inoculation and normalized to actin DNA as a measurement of cell growth (n=5; *: p<0.05). (F) Ikkβ^Δ dih10 cells were reconstituted with a control vector or WT IKKβ expression vector and were s.c. injected into 8 weeks old C57BL/6 mice. Allograft volume was measured weekly (n=5; *: p<0.01). (G) Ikkβ^f/f and IkkβΔ dih10 cells were s.c. injected as above. Starting from day 2, mice were treated daily with MLN120B or vehicle by oral gavage. Tumor volume was measured weekly (n=5; *: p<0.01, f/f/control vs. f/f/MLN by one-way ANOVA). Please also see FIG. 27.
(§1) FIG. 22. ROS-mediated SHP1/2 inhibition in IKKβ-deficient HCCs correlates with STAT3 activation and accelerated tumor growth. (A) Tumors derived from Ikkβ^f/f (f/f) and Ikkβ^Δ (Δ) dih10 cells were collected and lysed. Tumor lysates were immunoprecipitated with an anti-JAK2 antibody and examined for JAK2 tyrosine phosphorylation with PY20 antibody. Tumor lysates were also used for immunoblot analyses with the indicated antibodies. (B) SHP1 and SHP2 were immunoprecipitated from above tumor lysates and their phosphatase activities were measured (n=4; *: p<0.05). (C) Fresh frozen sections of HCCs from transplanted MUP-uPA mice were analyzed for superoxide accumulation by DHE staining. Fluorescence intensity in several fields was quantitated by ImageJ and relative average increases in fluorescent intensity are shown (n=3; *: p<0.01). Magnification bar=100 μm. (D-F) Ikkβ^f/5 (f/f) and Ikkβ^Δ (Δ) dih10 cells […] each were s.c. implanted into 8 weeks old C57BL/6 mice. Starting on day 2, the mice were switched to a diet containing vehicle or BHA (0.7%) for 6 weeks. (D) Tumors were collected from BHA treated and untreated mice, lysed and SHP1/2 phosphatase activities were measured. The data were plotted as SHP1/2 phosphatase activities in Ikkβ^Δ tumors relative to activities in Ikkβ^f/f tumors (n=4; *: p<0.05). (E) Tumor lysates were used to determine JNK kinase activity and STAT3 phosphorylation. (F) Tumor volume was measured weekly (n=5; p<0.01, Δ/ctrl vs. Δ/BHA by one way ANOVA). Please also see FIG. 29.
FIG. 30. STAT3 is required for HCC formation and growth. (A-D) Ikkβ^f/f (f/f) and Ikkβ^Δ (Δ) dih10 cells were s.c. implanted into 8 weeks old C57BL/6 mice. (A) Starting on day 2, the mice were i.p. injected with vehicle (ctrl) or 0.5 mg/mouse AG490 daily. Tumor volume was measured (n=5; p<0.05, f/f/vehicle vs. f/f/AG490; p<0.01, Δ/vehicle vs. Δ/AG490 by one way ANOVA). (B) After 6 weeks, tumors were removed, lysed and analyzed by immunoblotting with the indicated antibodies. […] (D) After 6 weeks, tumors were removed and analyzed as above. […]

Another data set concerns the target T1, STAT3 (Mus musculus, UniProt P42227).
T1 construct: from tissue; host or cells: subcutaneous tumors formed by Ikkβf/f or IkkβΔ dih10 cells in C57BL/6 mice
Nature of the data set: STAT3 phosphorylation in lysates of dih10 tumors (immunoblot). The format is in vivo. (Immunoblotting shows a protein as a band on a membrane.)

Data set [2] relates to many different types of cancer cells transplanted into mice. The settings on record: in vivo; cited from earlier work.
Another data set has as its system JAK2. Nature of the data set: JAK2 phosphorylation in IKKβ-deficient tumors. The format is in vivo, mouse. The settings on record: BHA treatment of tumor-bearing mice.
Text: as §1, with “The data were plotted as SHP1/2 phosphatase activities in Ikkβ^Δ tumors relative to activities in Ikkβ^f/f tumors (n=4; *: p<0.05). (E) Tumor lysates were used to determine JNK kinase activity and STAT3 phosphorylation.” left out, “Please also see FIG. 29.” left out

A further data set deals with SHP1 and SHP2. Kind of data set: SHP1/2 phosphatase activities in lysates of dih10 tumors. The settings on record: diet containing BHA (0.7%) for 6 weeks. The format is in vivo, mouse.
Text: as §1, with “Starting on day 2, the mice were switched to a diet containing vehicle or BHA (0.7%) for 6 weeks.” left out, “The data were plotted as SHP1/2 phosphatase activities in Ikkβ^Δ tumors relative to activities in Ikkβ^f/f tumors (n=4; *: p<0.05). (E) Tumor lysates were used to determine JNK kinase activity and STAT3 phosphorylation.” left out, “Please also see FIG. 29.” left out
(§2) RNA extraction and q-PCR were described (Sakurai et al., 2006). […] SHP1/2 phosphatase activities were determined as described (Lee and Esselman, 2002).

The next data set has as its system JNK. Nature of the data set: JNK kinase activity in lysates of dih10 tumors. The format is in vivo, mouse. The settings on record: diet containing BHA (0.7%) for 6 weeks.
Text: as §1, with “Starting on day 2, the mice were switched to a diet containing vehicle or BHA (0.7%) for 6 weeks.” left out, “The data were plotted as SHP1/2 phosphatase activities in Ikkβ^Δ tumors relative to activities in Ikkβ^f/f tumors (n=4; *: p<0.05). (E) Tumor lysates were used to determine JNK kinase activity and STAT3 phosphorylation.” left out, “Please also see FIG. 29.” left out
as §2

Data set [3] concerns liver. The settings on record: cited from earlier work.
In data set [4] the test system is liver. The settings on record: cited from earlier work. The source holds these as a separate data set.
Data set [5] deals with STAT3 phosphorylation in Ikkβ^f/f dih10 cells. Nature of the data set: IL-6 induced STAT3 phosphorylation by immunoblotting in dih10 cells. The settings on record: dih cells serum starved 48 hrs; 20 μM MLN120B; 10 ng/ml IL-6 30 min. The data set is classed as cell-based, mouse. On the procedure: (§3) FIG. 28. IKKβ ablation enhances STAT3 activation. (A) Ikkβ^f/f and Ikkβ^Δ dih10 cells were cultured under hepatosphere-forming conditions for 3 days and treated with 10 ng/ml of IL-6 for the indicated times. Whole cell lysates were analyzed by immunoblotting for STAT3 phosphorylation. (B) Ikkβ^f/f and Ikkβ^Δ dih10 cells were cultured under hepatosphere-forming conditions for 3 days and treated with 10 ng/ml of IL-22 for 30 min. STAT3 phosphorylation was analyzed as above. (C) Ikkβ^Δ dih10 cells were cultured under hepatosphere-forming conditions and infected with a control Adv or an Adv vector expressing constitutively active IKKβ^EE. The cells were treated with 10 ng/ml of IL-6 for 15 min and STAT3 phosphorylation was analyzed. (D) Ikkβ^f/f dih10 cells and HepG2 cells were serum starved for 48 hrs and treated with 20 μM MLN120B for the indicated times. The cells were then stimulated with 10 ng/ml of IL-6 for 30 min and STAT3 phosphorylation was analyzed by immunoblotting. Relative activities (RA) of STAT3 phosphorylation were determined by densitometry. (E) Ikkβ^f/f (f/f) and Ikkβ^Δ (Δ) HCCs from transplanted MUP-uPA mice were collected and total RNA was extracted. Expression of IL-6 and IL-22 mRNAs was measured by RT PCR.
as §2

Data set [6] concerns STAT3 phosphorylation in HepG2 cells. Nature of the data set: IL-6 induced STAT3 phosphorylation by immunoblotting in HepG2 cells. The format is cell-based. The settings on record: human liver cancer cell line (HepG2) serum starved 48 hrs; 20 μM MLN120B; 10 ng/ml IL-6 30 min. As for the experimental part:
as §3, §2

Data set [7] concerns human breast cancer cell line with constitutive STAT3 activity. The settings on record: in vivo; cited from earlier work.
A further data set relates to Huh-7. The settings on record: 5 mg/kg given every other day; cited from earlier work.
Where [8] appears, read: AG490 0.5 mg/mouse i.p. daily from day 2.
Setting [9] is: diet containing BHA (0.7%) for 6 weeks.
Where [10] appears, read: s.c. dih10 in C57BL/6, MLN120B daily by oral gavage from day 2.

Entries after “also recorded” stand apart in the source; their conditions may differ.

T1 sequence (P42227 whole entry): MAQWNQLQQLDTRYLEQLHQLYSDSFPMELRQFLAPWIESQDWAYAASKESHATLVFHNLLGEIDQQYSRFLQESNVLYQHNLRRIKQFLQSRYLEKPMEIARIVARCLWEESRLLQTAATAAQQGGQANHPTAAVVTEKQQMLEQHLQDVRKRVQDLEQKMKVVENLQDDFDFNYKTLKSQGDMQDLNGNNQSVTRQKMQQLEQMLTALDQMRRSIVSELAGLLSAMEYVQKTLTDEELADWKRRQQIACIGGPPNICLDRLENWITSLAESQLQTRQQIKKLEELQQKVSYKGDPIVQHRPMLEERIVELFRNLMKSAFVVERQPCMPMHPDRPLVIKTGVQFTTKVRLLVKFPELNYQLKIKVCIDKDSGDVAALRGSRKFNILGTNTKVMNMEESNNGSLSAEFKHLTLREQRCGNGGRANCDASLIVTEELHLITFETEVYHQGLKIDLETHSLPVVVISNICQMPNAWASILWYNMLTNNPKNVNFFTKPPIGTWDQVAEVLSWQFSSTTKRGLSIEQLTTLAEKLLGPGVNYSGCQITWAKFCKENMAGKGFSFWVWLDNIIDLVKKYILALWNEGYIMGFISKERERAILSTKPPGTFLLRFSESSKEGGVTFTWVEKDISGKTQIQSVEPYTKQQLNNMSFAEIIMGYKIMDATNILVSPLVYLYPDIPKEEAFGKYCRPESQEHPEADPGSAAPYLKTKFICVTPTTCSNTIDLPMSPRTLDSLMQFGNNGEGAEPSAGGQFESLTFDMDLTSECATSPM

On to `N#C/C(=C/c1ccc(O)c(O)c1)C(=O)NCc1ccccc1` [AG490], for which, in data set [1], the “in vivo tumorigenic growth of dih cells” value was “effective inhibition”. In addition, in data set [1] (setting [8]), the “Ikkβ^f/f tumorigenic growth” value is “more modest effect” and the “growth of Ikkβ^Δ subcutaneous tumors” value is recorded as “inhibited the growth”. Moreover, the “STAT3 activity in dih cell tumors” value on STAT3 was “effective inhibition”. Moreover, the “STAT3 phosphorylation in tumors” value on STAT3 (AG490 0.5 mg/mouse i.p. daily, tumors after 6 weeks, both IKKβ status) is given as “inhibited STAT3 phosphorylation regardless of IKKβ status”.

Consider `Cc1cc(Nc2nc(N[C@@H](C)c3ncc(F)cn3)ncc2Cl)n[nH]1` [AZD1480], for which, in data set [2], the “tumorigenic growth of cancer cells transplanted into mice” value is “Effective inhibition”.

Consider `COc1ccc(O)c(C(C)(C)C)c1` [BHA, butylated hydroxyanisole], for which, in the data set on JAK2, the “JAK2 phosphorylation in IKKβ-deficient tumors” value is “reduces”. For the same molecule, the “SHP1/2 phosphatase activities in IKKβ-deficient tumors” value in the data set on SHP1 and SHP2 is listed as “restores SHP1/2 activity; also recorded: completely restored”. Further, the “JNK activity in tumors” value in the data set with JNK was “reduced JNK activity”. Also, the “Ikkβ^Δ tumor growth” value in data set [1] (setting [9]) is given as “inhibits tumor growth; also recorded: reduced Ikkβ^Δ tumor growth to a level that was similar to that of Ikkβ^f/f tumors in untreated mice”. Moreover, the “STAT3 phosphorylation in tumors” value at STAT3 (setting [9]) is “reduced”. The “liver damage, compensatory proliferation and hepatocarcinogenesis” value in the data set on liver [3] (Ikkβ^Δhep and Ikkγ^Δhep mutant mice, BHA consumption) is recorded as “reversed”. Moreover, the “ROS accumulation in the liver” value with liver [3] (dietary administration) was “can be prevented”.

For `CCN(CC)N=O` [DEN, diethyl nitrosamine], in the data set on liver [4] (male mice older than 4 weeks of age), the HCC induction entry was “no longer effective in HCC induction on its own”. Moreover, in the data set with liver [4] (single dose to two-weeks-old mice), the “HCC induction, fraction of male mice” value is given as 100%.

For `COc1c(Cl)cc2c([nH]c3cnccc32)c1NC(=O)c1cccnc1C` [MLN120B], the “IL-6 induced STAT3 activation” value in [5] is listed as “enhanced IL-6 induced STAT3 activation”. In data set [1] (setting [10]), the “tumorigenic growth (tumor volume) of Ikkβ^f/f dih cells” value was “enhanced tumorigenic growth” and the “tumorigenic growth (tumor volume) of Ikkβ^Δ dih cells” value is on record as “not Ikkβ^Δ cells”. In data set [6], the “IL-6 induced STAT3 activation” value is “enhanced IL-6 induced STAT3 activation”.

For the molecule `Cc1ccc(S(=O)(=O)OCC(=O)Nc2ccc(C(=O)O)c(O)c2)cc1` [S3I-201], the “tumor growth of breast cancer xenografts” value in [7] was “inhibition of tumor growth”. The “in vivo tumorigenic growth of dih cells” value in data set [1] is “effective inhibition”. For the same molecule, in the data set with Huh-7, the “STAT3 tyrosine phosphorylation in Huh-7 xenografts” value is reported as “inhibited” and the “tumor growth of Huh-7 xenografts” value is given as “inhibited”.
